Reference: patent US20110124888A1, “STYRYLBENZOFURAN DERIVATIVES AS INHIBITORS FOR BETA-AMYLOID FIBRIL FORMATION AND PREPARATION METHOD THEREOF” (Korea Institute of Science and Technology, priority 2008, published 2011)

Legend:
beta-amyloid 42 (Aβ42) = molecular target: T1, beta-amyloid 42 (Aβ42) (Homo sapiens, UniProt P05067); assay: Inhibitory effect on the formation of beta-amyloid fibrils in vitro (ThT fluorescence assay); type: biochemical; conditions: for inhibition at 10 µM: 10 μM compound, Aβ42 25 μM, read-out: % Inhibition (10 μM); for IC50: In vitro ThT analysis (Aβ42: 25 μM); for % inhibition against the beta-amyloid 42 formation compared with curcumin: Tables 1 to 6, relative to curcumin
T1 construct: Beta-amyloid 42 (Aβ42) was dissolved in dimethylsulfoxide (DMSO)
T1 sequence (P05067 672-713 limits assumed): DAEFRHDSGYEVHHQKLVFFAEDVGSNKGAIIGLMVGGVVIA

[1] = molecular target: hERG potassium ion channel (Homo sapiens, UniProt Q12809); assay: Inhibitory effect on hERG potassium ion channel (whole-cell patch clamp, HEK-hERG cells); type: cell-based; conditions: for IC50: whole-cell patch clamp, room temperature, mean ± standard error, read-out: Inhibitory efficacy (IC50)
hERG potassium ion channel, sequence (Q12809 whole entry): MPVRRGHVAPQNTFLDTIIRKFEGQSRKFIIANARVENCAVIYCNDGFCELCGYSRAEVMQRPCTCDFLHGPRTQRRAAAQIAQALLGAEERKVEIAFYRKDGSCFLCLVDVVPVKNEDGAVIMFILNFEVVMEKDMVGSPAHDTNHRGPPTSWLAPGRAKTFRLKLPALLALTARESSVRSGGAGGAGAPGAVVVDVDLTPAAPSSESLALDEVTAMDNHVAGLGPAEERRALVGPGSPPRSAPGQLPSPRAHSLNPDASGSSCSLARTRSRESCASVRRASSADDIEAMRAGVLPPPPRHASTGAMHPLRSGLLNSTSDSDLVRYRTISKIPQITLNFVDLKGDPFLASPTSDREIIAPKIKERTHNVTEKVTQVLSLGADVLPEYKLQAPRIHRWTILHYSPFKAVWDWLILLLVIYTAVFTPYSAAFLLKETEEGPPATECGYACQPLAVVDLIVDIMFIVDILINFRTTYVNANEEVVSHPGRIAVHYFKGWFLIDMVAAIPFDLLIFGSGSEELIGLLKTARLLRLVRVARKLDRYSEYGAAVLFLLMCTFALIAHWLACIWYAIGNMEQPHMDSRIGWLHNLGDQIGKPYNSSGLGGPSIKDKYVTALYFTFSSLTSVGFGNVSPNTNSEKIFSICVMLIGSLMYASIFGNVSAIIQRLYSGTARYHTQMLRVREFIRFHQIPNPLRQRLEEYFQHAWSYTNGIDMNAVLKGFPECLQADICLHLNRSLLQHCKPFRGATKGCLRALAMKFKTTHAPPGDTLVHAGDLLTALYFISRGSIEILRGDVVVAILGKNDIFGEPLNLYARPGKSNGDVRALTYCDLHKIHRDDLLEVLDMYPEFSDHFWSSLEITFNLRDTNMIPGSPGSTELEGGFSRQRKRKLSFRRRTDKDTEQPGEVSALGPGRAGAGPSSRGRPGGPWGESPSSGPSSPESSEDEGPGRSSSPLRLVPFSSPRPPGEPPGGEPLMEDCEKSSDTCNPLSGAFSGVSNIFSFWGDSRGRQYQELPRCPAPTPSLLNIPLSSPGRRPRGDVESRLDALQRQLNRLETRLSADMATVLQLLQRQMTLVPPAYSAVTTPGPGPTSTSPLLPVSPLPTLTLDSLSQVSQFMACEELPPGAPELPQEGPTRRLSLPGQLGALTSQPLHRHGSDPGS
Method: 1) Model Cell Line and Culture
A HEK-hERG cell line (lonGate Biosciences, Frankfurt, Germany Co.), which expresses hERG stably, was cultured in a DMEM (Dulbecco's Modified Eagle's Medium, Sigma Co., St. Louis, Mo., USA) supplemented with 10% fetal bovine serum (FBS, Cambrex, Walkersville, Md., USA) and 0.5 mg/mL zeocin (Invitrogen, Carlsbad, Calif., USA). The cell line was subcultured 5 days after culture when 80% confluency was reached.
2) Preparation of Test Solution and Test Drug
A solution within an electrode used to measure the potassium ion current is composed of 115 mM K-aspartate, 20 mM KCl, 10 mM EGTA, 10 mM HEPES, 2.5 mM tris-phosphocreatine, 0.1 mM Na2GTP and 5 mM MgCl2 (pH 7.2, 290 mOsm/Kg H2O). A solution for an extracellular perfusate is composed of 135 mM NaCl, 5 mM KCl, 1 mM MgCl2, 2 mM CaCl2, 10 mM glucose, and 10 mM HEPES (pH 7.2, 300 mOsm/Kg H2O).
Test drug solutions were prepared by respectively diluting the inventive compounds with extracellular perfusate to a desired concentration. The prepared test drug solution was placed in a 7-array polyethylene tube connected into a capillary column for gas chromatography and was dropped from the tip of the column at a height of 100 μm or less to the HEK-hERG cell line.
3) Measurement of Ion Current
Potassium ion current was measured using EPC10 (Instrutech Co., NY, USA) patch clamp amplifier in accordance with the conventional whole-cell patch clamp method. Electrode used in the measurement was a borosilicate glass capillary (external diameter: 1.65 mm, inside diameter: 1.2 mm, Corning 7052, Gamer Glass Co., Claremont, Calif., USA) prepared by using P-97 Flaming-Brown micropipette puller (Sutter Instrument Co.). The electrode was coated with Sylgard 184 (Dow Corning Co., Midland, Mich., USA) and trimmed with microforge (Narishige Co., Tokyo, Japan). […] A culture dish containing HEK-hERG cells was placed in an inverted microscope (Nikon Co.) and extracellular perfusate containing the inventive compound was perfused at a rate of 1-2 mL/min. The membrane capacitance and series resistance of cell membrane were calibrated by 80% or more and potassium ion current was measured at a sampling rate of 2 kHz and a low-pass filter of 2 kHz (−3 dB; 8-pole Bassel filter). The test is conducted at room temperature (21-24° C.).
4) Data analysis and Statistics
The results were analyzed using Pulse/Pulsefit (v9.0, HEKA Elcktronik, Lambrecht, Germany) and Igor macro. The results were given as meant standard error.

Row | SMILES | inhibition at 10 µM (beta-amyloid 42 (Aβ42); experiment of Table 7) [%] | IC50 (beta-amyloid 42 (Aβ42); experiment of Table 1) [nM] | IC50 (beta-amyloid 42 (Aβ42); experiment of Table 7) [nM] | % inhibition against the beta-amyloid 42 formation compared with curcumin (beta-amyloid 42 (Aβ42)) | inhibitory efficacy on hERG potassium ion channel (in words) [1] | IC50 [1] [nM]
1 | COc1ccc2cc(C=Cc3ccc(N(C)C)cc3)oc2c1 [Compound 9, 6-methoxy-2-(4-dimethylaminostyryl)benzofuran] | 78.7 | 70 | 972 | superior % inhibition | insignificant inhibitory efficacy | 52100 ± 3680
2 | CNc1ccc(C=Cc2cc3cc(OC)ccc3o2)cc1 [Compound 17, 5-methoxy-2-(4-methylaminostyryl)benzofuran] | 74.6 | 78 | 725 | superior % inhibition | insignificant inhibitory efficacy | 47900 ± 5260
